pEC50: −log10 of the molar value. Starred links: 1 amine or outer side, 2 acyl side, 3 side chain; linkers in the order of their positions; H or OH if unused. Non-standard residues stand in square brackets, D forms with d. Residues, ends and D or L forms follow the SMILES beside them. *: point of attachment. NH(1S,2S-2-CONH2-cPent) = NC(=O)[C@H]1CCC[C@@H]1N*; X12 = O=C([C@H]1CCC[C@@H]1N[*:1])[*:2]; X13 = O=C([C@H]1CNC[C@@H]1N[*:1])[*:2]; ACPC(1S,2S) = N[C@H]1CCC[C@@H]1C(=O)*
Experiments:
[1] = biological target: T1, R^0 form of rat PTHR-1 (Rattus norvegicus, UniProt P25961); assay: Radio-ligand competition binding to R^0 form of rat PTHR-1; settings: Table 5; rat PTHR-1; mean ± SEM; read-out: R^0 -log (IC50) (converted)
T1 construct: expressed in transfected cells; host or cells: COS-7
T1 sequence (P25961 27-591): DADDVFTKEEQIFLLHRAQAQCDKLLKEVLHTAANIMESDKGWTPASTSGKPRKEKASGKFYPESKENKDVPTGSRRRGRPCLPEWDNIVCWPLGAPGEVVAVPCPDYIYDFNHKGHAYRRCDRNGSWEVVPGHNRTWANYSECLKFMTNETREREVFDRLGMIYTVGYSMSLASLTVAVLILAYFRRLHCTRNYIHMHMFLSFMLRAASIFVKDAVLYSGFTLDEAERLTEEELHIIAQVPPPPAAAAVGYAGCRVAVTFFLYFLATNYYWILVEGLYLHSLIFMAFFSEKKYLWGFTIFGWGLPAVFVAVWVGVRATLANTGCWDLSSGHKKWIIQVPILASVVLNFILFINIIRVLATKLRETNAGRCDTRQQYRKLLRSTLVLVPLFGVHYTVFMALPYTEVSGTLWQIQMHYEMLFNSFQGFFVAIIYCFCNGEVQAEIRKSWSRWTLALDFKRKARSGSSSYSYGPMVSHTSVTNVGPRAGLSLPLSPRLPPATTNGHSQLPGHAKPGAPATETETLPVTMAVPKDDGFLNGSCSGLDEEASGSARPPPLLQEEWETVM
Excerpt: Data are means (±SEM) of n≥4 experiments, each performed in duplicate.

[2] = biological target: T2, WT rat PTHR-1 (Rattus norvegicus, UniProt P25961); assay: cAMP GloSensor dose-response in GR-35 cells expressing rat PTHR-1; assay type: cell-based; settings: Table 7; GR-35 cells, 12-16 minutes after ligand addition; mean ± SEM
T2 construct: expressed in transfected cells
T2 sequence (P25961 27-591): T1 sequence (P25961 27-591)
Experimental: FIGS. 9A, 9B, and 9C constitute a series of graphs depicting cAMP responses in GR-35 cells expressing rat PTHR-1-WT. […] Data are means (±SEM) of n>4 experiments, each performed in duplicate.
(§1) For cAMP dose-response assays, monolayers of confluent HEK 293 cells were pre-incubated with buffer containing d-luciferin (0.5 mM) in 96 well plates at room temperature until a stable baseline level of luminescence was established (30 min). Varying concentrations of agonist were then added, and the time course of luminescence response was recorded using a Perkin Elmer plate reader following α/β-peptide addition.

[3] = biological target: T3, WT human PTHR-1 (Homo sapiens, UniProt Q03431); assay: cAMP GloSensor dose-response in GP-2.3 cells expressing human PTHR-1; assay type: cell-based
T3 construct: bioactivity of the resulting compound in full-length hPTHR-1 and a truncated version; expressed in transfected cells
T3 sequence (Q03431 27-593): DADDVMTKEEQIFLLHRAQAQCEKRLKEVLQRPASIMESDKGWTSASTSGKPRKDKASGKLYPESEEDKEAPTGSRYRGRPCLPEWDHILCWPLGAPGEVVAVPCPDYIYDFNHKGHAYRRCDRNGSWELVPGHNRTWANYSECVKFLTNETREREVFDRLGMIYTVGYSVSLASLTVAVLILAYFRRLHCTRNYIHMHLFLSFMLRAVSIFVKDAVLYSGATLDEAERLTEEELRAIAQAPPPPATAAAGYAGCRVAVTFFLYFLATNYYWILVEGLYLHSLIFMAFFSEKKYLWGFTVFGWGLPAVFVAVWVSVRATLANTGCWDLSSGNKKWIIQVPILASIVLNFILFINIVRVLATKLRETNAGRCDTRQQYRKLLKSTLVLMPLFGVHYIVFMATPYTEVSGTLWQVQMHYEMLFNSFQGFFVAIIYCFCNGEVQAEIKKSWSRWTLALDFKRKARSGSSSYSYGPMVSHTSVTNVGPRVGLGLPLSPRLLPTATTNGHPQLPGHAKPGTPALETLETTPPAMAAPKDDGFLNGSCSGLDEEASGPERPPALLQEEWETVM
Experimental: FIGS. 8A, 8B, and 8C constitute a series of graphs depicting cAMP responses in GP-2.3 cells expressing wild-type human parathyroid hormone receptor 1 (PTHR-1-WT). […] Data are means (±SEM) of n>4 experiments, each performed in duplicate.
as §1

[4] = test system: PTH2R/PTH1R; assay: cAMP response selectivity between PTH2R and PTH1R; assay type: cell-based; settings: most selective; for cAMP response PTH2R/PTH1R: Table 16; for cAMP response PTH1R/PTH2R: Table 17
Excerpt: Selected analogs containing beta-amino acid substitutions selectively signal through one or the other of the two receptors. Without being bound to any underling biological phenomenon or mechanism, PTHR-2 likely serves an alternative function to PTHR-1 as it is highly expressed in the central nervous system. In contrast, PTHR-1 is highly expressed in bone and kidney, but not in the CNS. The analogs disclosed herein are thus useful as therapeutic compounds that a specific agonists or antagonists of PTHR-1 and PTHR-2.

[5] = biological target: T4, PTHR (Homo sapiens, UniProt Q03431); assay: cAMP induction potency, N-terminal modifications and cyclic constraints (Tables 9, 10, 13); assay type: cell-based; settings: Table 9
T4 construct: expressed in transfected cells
T4 sequence (Q03431 27-593): T3 sequence (Q03431 27-593)

[6] = biological target: T5, delNT PTHR1 (Homo sapiens, UniProt Q03431, DEL24-181); assay: cAMP-inducing potency at truncated receptor delNT PTHR1; assay type: cell-based
T5 construct: expressed in transfected cells
T5 sequence (Q03431 with tags, fused parts or gaps DEL24-181): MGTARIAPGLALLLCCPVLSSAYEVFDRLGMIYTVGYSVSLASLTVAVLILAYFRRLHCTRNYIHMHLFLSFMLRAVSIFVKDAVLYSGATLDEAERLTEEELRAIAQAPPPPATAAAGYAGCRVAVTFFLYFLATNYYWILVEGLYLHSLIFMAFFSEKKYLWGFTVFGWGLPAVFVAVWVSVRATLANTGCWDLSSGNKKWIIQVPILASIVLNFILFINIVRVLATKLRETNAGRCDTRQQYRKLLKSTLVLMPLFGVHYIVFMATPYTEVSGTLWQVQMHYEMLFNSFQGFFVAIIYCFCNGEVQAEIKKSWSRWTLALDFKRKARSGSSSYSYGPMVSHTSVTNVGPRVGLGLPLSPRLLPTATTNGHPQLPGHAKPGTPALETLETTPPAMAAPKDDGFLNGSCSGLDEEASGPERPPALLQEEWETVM

Compound: CC[C@H](C)[C@H](NC(=O)[C@H](CCC(=O)O)NC(=O)[C@H](CO)NC(=O)[C@@H](NC(=O)[C@@H](N)CO)C(C)C)C(=O)N[C@@H](CCC(N)=O)C(=O)N[C@@H](CC(C)C)C(=O)N[C@@H](CCSC)C(=O)N[C@@H](Cc1c[nH]cn1)C(=O)N[C@@H](CC(N)=O)C(=O)N[C@@H](CC(C)C)C(=O)NCC(=O)N[C@@H](CCCCN)C(=O)N[C@@H](Cc1c[nH]cn1)C(=O)N[C@@H](CC(C)C)C(=O)N[C@@H](CC(N)=O)C(=O)N[C@@H](CO)C(=O)N[C@@H](CCSC)C(=O)N[C@@H](CCC(=O)O)C(=O)N[C@@H](CCCNC(=N)N)C(=O)N[C@H](C(=O)N[C@@H](CCC(=O)O)C(=O)N[C@@H](Cc1c[nH]c2ccccc12)C(=O)N[C@@H](CC(C)C)C(=O)N[C@@H](CCCNC(=N)N)CC(=O)N[C@@H](CCCCN)C(=O)N[C@@H](CCCCN)C(=O)N[C@@H](CC(C)C)C(=O)N[C@@H](CCC(N)=O)CC(=O)N[C@@H](CC(=O)O)C(=O)N[C@H](C(=O)N[C@@H](Cc1c[nH]cn1)C(=O)N[C@@H](CC(N)=O)CC(=O)N[C@@H](Cc1ccccc1)C(N)=O)C(C)C)C(C)C [C3]
- IC50 [1]: 4.57 nM
- Max [2]: 68 ± 77 luminescence counts per second × 10−3
- pEC50 ([3]; Table 1, GP-2.3 cells, read-out: cAMP (hPTHR-1) EC50): 9.24
- cAMP (hPTHR-1) Max ([3]; Table 1, luminescence counts per second relative to PTH(1-34), 12-16 minutes after ligand addition): 1.03
- Max ([3]; Table 6, GP-2.3 cells, 12-16 minutes after ligand addition, mean ± SEM): 223 ± 14 luminescence counts per second × 10^−3
- agonist activity at hPTHR-1 (cAMP response), in words ([3]; maximum cAMP response compared with PTH(1-34)): full agonists of hPTHR-1

Compound: hPTHrP(1-36): parathyroid hormone-related protein fragment, comparator in the PTH2R/PTH1R cAMP response tables
- cAMP response PTH2R/PTH1R [4]: 0.04
- cAMP response PTH1R/PTH2R [4]: 27

Compound: CSCC[C@H](NC(=O)[C@H]1CCC[C@@H]1NC(=O)[C@H](CCC(N)=O)NC(=O)[C@H]1CCC[C@@H]1NC(=O)[C@H](CCC(=O)O)NC(=O)[C@H](CO)NC(=O)[C@@H](NC(=O)[C@H]1CCC[C@@H]1N)C(C)C)C(=O)N[C@@H](Cc1c[nH]cn1)C(=O)N[C@@H](CC(N)=O)C(=O)N[C@@H](CC(C)C)C(=O)NCC(=O)N[C@@H](CCCCN)C(=O)N[C@H]1CCC[C@@H]1C(=O)N[C@@H](CC(C)C)C(=O)N[C@@H](CC(N)=O)C(=O)N[C@@H](CO)C(=O)N[C@H]1CCC[C@@H]1C(=O)N[C@@H](CCC(=O)O)C(=O)N[C@@H](CCCNC(=N)N)C(=O)N[C@H](C(=O)N[C@H]1CNC[C@@H]1C(=O)N[C@@H](Cc1c[nH]c2ccccc12)C(=O)N[C@@H](CC(C)C)C(=O)N[C@@H](CCCNC(=N)N)C(=O)N[C@H]1CNC[C@@H]1C(=O)N[C@@H](CCCCN)C(=O)N[C@@H](CC(C)C)C(=O)N[C@@H](CCC(N)=O)C(=O)N[C@H]1CCC[C@@H]1C(=O)N[C@H](C(=O)N[C@@H](Cc1c[nH]cn1)C(=O)N[C@@H](CC(N)=O)C(=O)N[C@H]1CCC[C@@H]1C(N)=O)C(C)C)C(C)C [FcycD6_ACPC(1,5,7), XVSEXQXMHNLGKXLNSXERVZWLRZKLQXVHNX-NH2] ({ACPC(1S,2S)}-VSE[X12]Q[X12]MHNLGK[X12]LNS[X12]ERV[X13]WLR[X13]KLQ[X12]VHN-{NH(1S,2S-2-CONH2-cPent)}; N-terminus assumed)
- Fold PTH [5]: 234
- cAMP response PTH2R/PTH1R [4]: 45

Compound: CC[C@H](C)[C@@H](CC(=O)N[C@@H](CCC(N)=O)C(=O)N[C@@H](CC(C)C)C(=O)N[C@@H](CCSC)C(=O)N[C@@H](Cc1c[nH]cn1)C(=O)N[C@@H](CC(N)=O)C(=O)N[C@@H](CC(C)C)C(=O)NCC(=O)N[C@@H](CCCCN)C(=O)N[C@@H](Cc1c[nH]cn1)C(=O)N[C@@H](CC(C)C)C(=O)N[C@@H](CC(N)=O)C(=O)N[C@@H](CO)C(=O)N[C@@H](CCSC)C(=O)N[C@@H](CCC(=O)O)C(=O)N[C@@H](CCCNC(=N)N)C(=O)N[C@H](C(=O)N[C@@H](CCC(=O)O)C(=O)N[C@@H](Cc1c[nH]c2ccccc12)C(=O)N[C@@H](CC(C)C)C(=O)N[C@@H](CCCNC(=N)N)C(=O)N[C@@H](CCCCN)C(=O)N[C@@H](CCCCN)C(=O)N[C@@H](CC(C)C)C(=O)N[C@@H](CCC(N)=O)C(=O)N[C@@H](CC(=O)O)C(=O)N[C@H](C(=O)N[C@@H](Cc1c[nH]cn1)C(=O)N[C@@H](CC(N)=O)C(=O)N[C@@H](Cc1ccccc1)C(N)=O)C(C)C)C(C)C)NC(=O)[C@H](CCC(=O)O)NC(=O)[C@H](CO)NC(=O)[C@@H](NC(=O)[C@@H](N)CO)C(C)C [β^3Ile(5)]
- cAMP-inducing potency in delNT PTHR-1, in words [6]: weak or no potency
- deINT PTHR1 EC50, nM (Means ± SEM) ([6]; Table 8, truncated receptor lacking Ala^24-Arg^181): No activity

Compound: hTIP(1-39): comparator peptide in the PTH2R/PTH1R cAMP response tables (SLALADDAAFRERARLLAALERRHWLNSYMHKLLVLDAP)
- cAMP response PTH2R/PTH1R [4]: 165
- cAMP response PTH1R/PTH2R [4]: 0.01

Compound: CC[C@H](C)[C@H](NC(=O)[C@H](CCC(=O)O)NC(=O)[C@H](CO)NC(=O)[C@@H](NC(=O)[C@@H](N)CO)C(C)C)C(=O)N[C@@H](CCC(N)=O)C(=O)N[C@H](CC(=O)N[C@@H](CCSC)C(=O)N[C@@H](Cc1c[nH]cn1)C(=O)N[C@@H](CC(N)=O)C(=O)N[C@@H](CC(C)C)C(=O)NCC(=O)N[C@@H](CCCCN)C(=O)N[C@@H](Cc1c[nH]cn1)C(=O)N[C@@H](CC(C)C)C(=O)N[C@@H](CC(N)=O)C(=O)N[C@@H](CO)C(=O)N[C@@H](CCSC)C(=O)N[C@@H](CCC(=O)O)C(=O)N[C@@H](CCCNC(=N)N)C(=O)N[C@H](C(=O)N[C@@H](CCC(=O)O)C(=O)N[C@@H](Cc1c[nH]c2ccccc12)C(=O)N[C@@H](CC(C)C)C(=O)N[C@@H](CCCNC(=N)N)C(=O)N[C@@H](CCCCN)C(=O)N[C@@H](CCCCN)C(=O)N[C@@H](CC(C)C)C(=O)N[C@@H](CCC(N)=O)C(=O)N[C@@H](CC(=O)O)C(=O)N[C@H](C(=O)N[C@@H](Cc1c[nH]cn1)C(=O)N[C@@H](CC(N)=O)C(=O)N[C@@H](Cc1ccccc1)C(N)=O)C(C)C)C(C)C)CC(C)C [β^3Leu(7)]
- cAMP-inducing potency in delNT PTHR-1, in words [6]: weak or no potency

Source: patent US10501518B2 (priority 2013, dated 2019)
